Results from BindingDB's records for doi:10.1021/jm990587w (Alcon Laboratories, 2000).

Biological target: Prostaglandin F2-alpha receptor (Bos taurus)
Assay: Inhibitory Binding constant (n=2) to Prostanoid FP receptor expressed in bovine corpus luteum

Work on O=C(O)CCC/C=C\C[C@@H]1[C@@H](/C=C/[C@@H](O)COc2cccc(Cl)c2)[C@H](O)CC[C@@H]1O [7-{2-[4-(3-Chloro-phenoxy)-3-hydroxy-but-1-enyl]-3,6-dihydroxy-cyclohexyl}-hept-5-enoic acid] yielded a Ki of 1.9 µM.

For O=C(O)CCC/C=C\C[C@@H]1[C@@H](/C=C/[C@H](O)COc2cccc(Cl)c2)[C@H](O)CC[C@@H]1O [7-{2-[4-(3-Chloro-phenoxy)-3-hydroxy-but-1-enyl]-3,6-dihydroxy-cyclohexyl}-hept-5-enoic acid], the Ki was 56 µM.
